Here are results for 25 compounds from patent US20250163022A1, “PARP1 INHIBITORS” (Synnovation Therapeutics, Inc., priority 2021, published 2025).

For the assay, the target named is T1, PARP1 (Homo sapiens, UniProt P09874).
T1 construct: HeLa cells (wide-type with PARP1 gene) were purchased from ATCC; host or cells: HeLa (wild type)
T1 sequence (P09874 whole entry): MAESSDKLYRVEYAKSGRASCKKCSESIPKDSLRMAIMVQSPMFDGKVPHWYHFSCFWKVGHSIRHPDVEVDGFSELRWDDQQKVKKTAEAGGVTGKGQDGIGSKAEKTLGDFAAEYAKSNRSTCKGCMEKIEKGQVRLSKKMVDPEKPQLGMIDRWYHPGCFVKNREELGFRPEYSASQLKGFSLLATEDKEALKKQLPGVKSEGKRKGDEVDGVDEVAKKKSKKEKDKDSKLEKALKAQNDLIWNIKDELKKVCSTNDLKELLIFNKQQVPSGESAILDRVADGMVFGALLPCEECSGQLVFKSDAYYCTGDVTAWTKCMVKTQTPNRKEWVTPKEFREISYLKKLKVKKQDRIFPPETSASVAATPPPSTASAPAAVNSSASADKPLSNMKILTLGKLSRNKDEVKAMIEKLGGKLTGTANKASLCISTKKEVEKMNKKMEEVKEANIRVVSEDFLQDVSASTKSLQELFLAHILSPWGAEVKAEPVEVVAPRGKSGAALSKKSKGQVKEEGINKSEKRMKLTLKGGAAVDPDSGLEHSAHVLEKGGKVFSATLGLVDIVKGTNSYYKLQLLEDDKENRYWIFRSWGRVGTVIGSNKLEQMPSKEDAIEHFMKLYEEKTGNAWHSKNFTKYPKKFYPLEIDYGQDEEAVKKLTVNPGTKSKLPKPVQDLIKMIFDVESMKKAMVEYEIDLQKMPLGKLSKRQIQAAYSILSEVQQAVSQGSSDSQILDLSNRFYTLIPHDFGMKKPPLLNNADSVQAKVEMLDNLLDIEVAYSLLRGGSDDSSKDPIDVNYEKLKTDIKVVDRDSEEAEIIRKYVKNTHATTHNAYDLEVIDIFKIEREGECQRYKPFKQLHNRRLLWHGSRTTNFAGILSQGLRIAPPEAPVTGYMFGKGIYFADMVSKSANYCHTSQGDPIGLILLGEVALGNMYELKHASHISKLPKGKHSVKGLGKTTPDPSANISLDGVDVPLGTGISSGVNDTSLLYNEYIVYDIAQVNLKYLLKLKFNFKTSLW
Briefly: In-Cell Western measurement of PARylation in PARP1 WT and knockout cells. Particulars: HeLa cells (wide-type with PARP1 gene); hydrogen peroxide-induced PARylation; compounds 30 min, then 10 mM hydrogen peroxide 15 min; read-out: HeLa_WT_IC50. It is filed as cell-based. In outline:
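Wild-type and PARP1-knockout HEK-293T and HAP1 cells, plus HeLa, pretreated with compound 30 min, then stimulated with 10 mM hydrogen peroxide for 15 min. Methanol-fixed cells immunostained for PARylation and imaged by In-Cell Western with infrared secondary antibody; IC50 fitted from signal.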
For `CNC(=O)c1ccc(N2CCN(Cc3cnc4c5c(c(=O)[nH]c4c3)CCC5)CC2)cn1` [Compound I-6, N-methyl-5-(4-((6-oxo-6,7,8,9-tetrahydro-5H-cyclopenta[c][1,5]naphthyridin-3-yl)methyl)piperazin-1-yl)picolinamide], the IC50 is not above 10 nM.

With `CCN1C(=O)Nc2cc(CN3CCN(c4ccc(C(=O)NC)nc4F)CC3)cc3ncnc1c23` [Compound I-19, 5-(4-((3-ethyl-2-oxo-2,3-dihydro-1H-pyrimido[4,5,6-de]quinazolin-8-yl)methyl)piperazin-1-yl)-6-fluoro-N-methylpicolinamide], the IC50 is not above 10 nM.

With `CNC(=O)c1ccc(N2CCN(Cc3ncc4c5c(c(=O)[nH]c4c3F)CCC5)CC2)c(C(F)(F)F)n1` [Compound I-28, 5-(4-((4-Fluoro-6-oxo-6,7,8,9-tetrahydro-5H-cyclopenta[c][1,6]naphthyridin-3-yl)methyl)piperazin-1-yl)-N-methyl-6-(trifluoromethyl)picolinamide], the IC50 is not above 10 nM.

For `CNC(=O)c1ccc(N2CCN(Cc3cnc4c5c(c(=O)[nH]c4c3)CCC5)CC2)c(C)n1` [Compound I-20, N,6-dimethyl-5-(4-((6-oxo-6,7,8,9-tetrahydro-5H-cyclopenta[c][1,5]naphthyridin-3-yl)methyl)piperazin-1-yl)picolinamide], the IC50 is not above 10 nM.

Take `CNC(=O)c1ccc(N2CCN(Cc3cc4[nH]c(=O)c5c(c4cn3)CCC5)CC2)c(C)n1` [Compound I-30, N,6-dimethyl-5-(4-((6-oxo-6,7,8,9-tetrahydro-5H-cyclopenta[c][1,6]naphthyridin-3-yl)methyl)piperazin-1-yl)picolinamide]: the IC50 was not above 10 nM.

Consider `CNC(=O)c1ccc(N2CCN(Cc3ccc4c(c3)[nH]c(=O)c3ccn(C)c34)CC2)cn1` [Compound I-8, N-methyl-5-(4-((1-methyl-4-oxo-4,5-dihydro-1H-pyrrolo[3,2-c]quinolin-7-yl)methyl)piperazin-1-yl)picolinamide], for which the IC50 is not above 10 nM.

Turning to `CCN1C(=O)Nc2c(F)c(CN3CCN(c4ccc(C(=O)NC5CC5)cc4C)CC3)cc3ncnc1c23` [Compound I-82, N-cyclopropyl-4-(4-((3-ethyl-9-fluoro-2-oxo-2,3-dihydro-1H-pyrimido[4,5,6-de]quinazolin-8-yl)methyl)piperazin-1-yl)-3-methylbenzamide], the IC50 is not above 10 nM.

Turning to `CCN1C(=O)Nc2c(F)c(CN3CCN(c4ccc(C(=O)N[C@@H]5[C@@H]6COC[C@@H]65)nc4C)CC3)cc3ncnc1c23` [Compound I-69, N-((1R,5S,6s)-3-oxabicyclo[3.1.0]hexan-6-yl)-5-(4-((3-ethyl-9-fluoro-2-oxo-2,3-dihydro-1H-pyrimido[4,5,6-de]quinazolin-8-yl)methyl)piperazin-1-yl)-6-methylpicolinamide], the IC50 lay within 10 to 100 nM.

With `CNC(=O)c1ccc(N2CCN(Cc3cc(OC)c4c(=O)n(C)c(=O)[nH]c4c3F)CC2)c(C)n1` [Compound I-38, 5-(4-((8-Fluoro-5-methoxy-3-methyl-2,4-dioxo-1,2,3,4-tetrahydroquinazolin-7-yl)methyl)piperazin-1-yl)-N,6-dimethylpicolinamide], the IC50 was not above 10 nM.

Regarding `CCN1C(=O)Nc2cc(CN3CCN(c4ccc(C(=O)NC)nc4C)CC3)cc3cnnc1c23` [Compound I-45, 5-[4-[(12-Ethyl-11-oxo-2,3,10,12-tetrazatricyclo[7.3.1.05,13]trideca-1,3,5,7,9 (13)-pentaen-7-yl)methyl]piperazin-1-yl]-N,6-dimethyl-pyridine-2-carboxamide], the IC50 is not above 10 nM.

As to `CCn1c(=O)[nH]c2cc(CN3CCN(c4ccc(C(=O)NC)nc4)CC3)ccc2c1=O` [Compound I-1, 5-(4-((3-Ethyl-2,4-dioxo-1,2,3,4-tetrahydroquinazolin-7-yl)methyl)piperazin-1-yl)-N-methylpicolinamide], the IC50 is not above 10 nM.

Consider `CCN1C(=O)Nc2c(F)c(CN3CCN(c4ccc(C(=O)N[C@H]5C[C@H](C#N)C5)nc4C)CC3)cc3ncnc1c23` [Compound I-60, N-((1r,3r)-3-cyanocyclobutyl)-5-(4-((3-ethyl-9-fluoro-2-oxo-2,3-dihydro-1H-pyrimido[4,5,6-de]quinazolin-8-yl)methyl)piperazin-1-yl)-6-methylpicolinamide], for which the IC50 is not above 10 nM.

`CCN1C(=O)Nc2c(F)c(CN3CCN(c4ccc(C(=O)NC5CC5)nc4C)CC3)cc3c(=O)n(C)nc1c23` [Compound I-80, N-cyclopropyl-5-(4-((9-ethyl-6-fluoro-2-methyl-3,8-dioxo-2,7,8,9-tetrahydro-3H-pyridazino[3,4,5-de]quinazolin-5-yl)methyl)piperazin-1-yl)-6-methylpicolinamide]: the IC50 was 10 to 100 nM.

As for `CCc1cc2sc(CN3CCN(c4ccc(C(=O)NC)nc4)CC3)cc2[nH]c1=O` [Compound I-13, 5-(4-((6-Ethyl-5-oxo-4,5-dihydrothieno[3,2-b]pyridin-2-yl)methyl)piperazin-1-yl)-N-methylpicolinamide], the IC50 is not above 10 nM.

On to `CCN1C(=O)Nc2c(F)c(CN3CCN(c4ccc(C(=O)N[C@H]5[C@@H]6COC[C@@H]65)nc4C)CC3)cc3ncnc1c23` [Compound I-70, N-((1R,5S,6r)-3-oxabicyclo[3.1.0]hexan-6-yl)-5-(4-((3-ethyl-9-fluoro-2-oxo-2,3-dihydro-1H-pyrimido[4,5,6-de]quinazolin-8-yl)methyl)piperazin-1-yl)-6-methylpicolinamide], for which the IC50 was not above 10 nM.

Turning to `CCN1C(=O)Nc2c(F)c(CN3CCN(c4ccc(C(=O)NC5(COC)CC5)nc4C)CC3)cc3ncnc1c23` [Compound I-66, 5-(4-((3-ethyl-9-fluoro-2-oxo-2,3-dihydro-1H-pyrimido[4,5,6-de]quinazolin-8-yl)methyl)piperazin-1-yl)-N-(1-(methoxymethyl)cyclopropyl)-6-methylpicolinamide], the IC50 was not above 10 nM.

Take `CCn1c(=O)[nH]c2c(F)c(CN3CCN(c4ccc(C(=O)NC)nc4C)CC3)cc(COC)c2c1=O` [Compound I-46, 5-(4-((3-Ethyl-8-fluoro-5-(methoxymethyl)-2,4-dioxo-1,2,3,4-tetrahydroquinazolin-7-yl)methyl)piperazin-1-yl)-N,6-dimethylpicolinamide]: the IC50 is not above 10 nM.

On to `CCN1C(=O)Nc2c(F)c(CN3CCN(c4ccc(C(=O)NC5CN(C)C5)nc4C)CC3)cc3ncnc1c23` [Compound I-71, 5-(4-((3-ethyl-9-fluoro-2-oxo-2,3-dihydro-1H-pyrimido[4,5,6-de]quinazolin-8-yl)methyl)piperazin-1-yl)-6-methyl-N-(1-methylazetidin-3-yl)picolinamide], for which the IC50 was not above 10 nM.

In the case of `CCn1c(=O)[nH]c2c(F)c(CN3CCN(c4ccc(C(=O)NC)nc4C)CC3)ccc2c1=O` [Compound I-21, 5-(4-((3-ethyl-8-fluoro-2,4-dioxo-1,2,3,4-tetrahydroquinazolin-7-yl)methyl)piperazin-1-yl)-N,6-dimethylpicolinamide], the IC50 was not above 10 nM.

For `CNC(=O)c1ccc(N2CCN(Cc3ccc4c(c3)NC(=O)C3CC43)CC2)cn1` (stereo not shown) [Compound I-3, N-Methyl-5-(4-((2-oxo-1a,2,3,7b-tetrahydro-1H-cyclopropa[c]quinolin-5-yl)methyl)piperazin-1-yl)picolinamide], the IC50 is 100 to 500 nM.

Take `CCN1C(=O)Nc2c(F)c(CN3CCN(c4ccc(C(=O)NC)nc4C)CC3)cc3c2c1nc(=O)n3C` [Compound I-51, 5-(4-((3-Ethyl-9-fluoro-6-methyl-2,5-dioxo-2,3,5,6-tetrahydro-1H-pyrimido[4,5,6-de]quinazolin-8-yl)methyl)piperazin-1-yl)-N,6-dimethylpicolinamide]: the IC50 lay within 10 to 100 nM.

Take `CNC(=O)c1ccc(N2CCN(Cc3ncc4c5c(c(=O)[nH]c4c3F)CCC5)CC2)cn1` [Compound I-26, 5-(4-((4-Fluoro-6-oxo-6,7,8,9-tetrahydro-5H-cyclopenta[c][1,6]naphthyridin-3-yl)methyl)piperazin-1-yl)-N-methylpicolinamide]: the IC50 was not above 10 nM.

Take `CCN1C(=O)Nc2cc(CN3CCN(c4ccc(C(=O)NC)nc4C)CC3)cc3ncnc1c23` [Compound I-17, 5-(4-((3-Ethyl-2-oxo-2,3-dihydro-1H-pyrimido[4,5,6-de]quinazolin-8-yl)methyl)piperazin-1-yl)-N,6-dimethylpicolinamide]: the IC50 is not above 10 nM.

On to `CNC(=O)c1ccc(N2CCN(Cc3cc(C4CC4)c4c(=O)n(C)c(=O)[nH]c4c3F)CC2)c(C)n1` [Compound I-49, 5-(4-((5-Cyclopropyl-8-fluoro-3-methyl-2,4-dioxo-1,2,3,4-tetrahydroquinazolin-7-yl)methyl)piperazin-1-yl)-N,6-dimethylpicolinamide], for which the IC50 was not above 10 nM.

With `CNC(=O)c1ccc(N2CCN(Cc3ccc4c(=O)n(CC(F)F)c(=O)[nH]c4c3)CC2)cn1` [Compound I-12, 5-(4-((3-(2,2-Difluoroethyl)-2,4-dioxo-1,2,3,4-tetrahydroquinazolin-7-yl)methyl)piperazin-1-yl)-N-methylpicolinamide], the IC50 is not above 10 nM.
